According to US9730944B2, “Antiviral activity of novel bicyclic heterocycles” (priority 2010, dated 2017):

Tests used:
HIV-1 strain IIIB = test: Inhibition of replication of HIV-1 (IIIB strain) in MT-4 cells, MTT assay; type: cell-based; conditions: Human immunodeficiency virus 1, IIIB, MT4, 120 h; MT-4 cells, MTT assay, five days after infection, 50% protection from cytopathic effect; read-out: EC50 (μM) HIV-1 (IIIB)
HIV-2 strain (ROD) = test: Inhibition of replication of HIV-2 (ROD strain) in MT-4 cells, MTT assay; type: cell-based; conditions: Human immunodeficiency virus 2, MT4, 120 h; MT-4 cells, MTT assay, five days after infection, 50% protection from cytopathic effect; read-out: EC50 (μM) HIV-2 (ROD)
in vitro = conditions: human
[1] = test system: genotype 1a H-77 replicon; test: HCV-1a replicon potency in RLuc-1 cells, bioluminescence; type: cell-based; conditions: for HCV-1a Replicon Selectivity Index: CC50/EC50, genotype 1a replicon; for EC50: Hepatitis C virus, 72 h, read-out: HCV-1a Replicon EC50 (μM)
[2] = Cytotoxicity in HCV-1a replicon cells, Promega CellTiter-Glo cell viability assay

Cc1cccc(N2CCN(c3nc(N)nc4sc(-c5ccc(F)cc5)nc34)CC2)c1 [Example 35, 2-(4-fluorophenyl)-7-(4-m-tolylpiperazin-1-yl)-thiazolo[5,4-d]pyrimidin-5-amine]
EC50 (HIV-1 strain IIIB): > 234 µM
EC50 (HIV-2 strain (ROD)): > 38.5 µM
CC50 (in vitro): 234 µM

Nc1nc(N2CCN(CC(=O)NCCc3ccccc3)CC2)c2nc(CCc3ccc(F)cc3)sc2n1 [Example 141, 5-amino-2-[2-(4-fluorophenyl)ethyl]-7-(4-(phenethylcarbamoyl-methyl)piperazin-1-yl)-thiazolo[5,4-d]pyrimidine]
HCV-1a Replicon Selectivity Index [1]: 1.0
EC50 [1]: 15.8 µM
CC50 at 72 h [2]: 16 µM

Cc1cccc(NC(=O)N2CCN(c3nc(N)nc4sc(-c5ccccc5)cc34)CC2)c1 [Example 330, 4-(2-amino-6-phenylthieno[2,3-d]pyrimidin-4-yl)-N-m-tolylpiperazine-1-carboxamide]
HCV-1a Replicon Selectivity Index [1]: 6.0
EC50 [1]: 7.2 µM
CC50 at 72 h [2]: 43.5 µM

Nc1nc(N2CCNCC2)c2nc(-c3ccc(F)cc3)sc2n1 [Example 25, 2-(4-fluorophenyl)-7-(piperazin-1-yl)-thiazolo[5,4-d]pyrimidin-5-amine]
EC50 (HIV-1 strain IIIB): > 1.8 µM
EC50 (HIV-2 strain (ROD)): > 1.8 µM
CC50 (in vitro): 1.8 µM

Nc1nc(N2CCN(C(=O)COc3ccc(Cl)cc3)CC2)c2nc(-c3ccc(Cl)c(Cl)c3)sc2n1 [Example 116, 5-amino-7-[4-(4-chlorophenoxyacetyl)piperazin-1-yl]-2-(3,4-dichlorophenyl)thiazolo[5,4-d]pyrimidine]
HCV-1a Replicon Selectivity Index [1]: 0.8
EC50 [1]: > 44.4 µM
CC50 at 72 h [2]: 37.2 µM

Nc1nc(N2CCN(C(=O)COc3ccc(Cl)cc3)CC2)c2nc(SCCc3ccccc3)[nH]c2n1 [Example 427, 1-(4-(2-amino-8-(phenethylthio)-9H-purin-6-yl)piperazin-1-yl)-2-(4-chlorophenoxy)ethanone]
HCV-1a Replicon Selectivity Index [1]: 1.1
EC50 [1]: 5.2 µM
CC50 at 72 h [2]: 5.8 µM

Nc1nc(N2CCN(C(=O)OCc3ccccc3)CC2)c2nc(-c3ccc(F)cc3)sc2n1 [Example 40, benzyl-4-(5-amino-2-(4-fluorophenyl)thiazolo[5,4-d]pyrimidin-7-yl)piperazine-1-carboxylate]
EC50 (HIV-1 strain IIIB): > 241 µM
EC50 (HIV-2 strain (ROD)): > 241 µM
CC50 (in vitro): 241 µM

Nc1nc(N2CCOCC2)c2nc(-c3ccc(F)cc3)sc2n1 [Example 33, 2-(4-fluorophenyl)-7-morpholino-thiazolo[5,4-d]pyrimidin-5-amine]
EC50 (HIV-1 strain IIIB): > 207 µM
EC50 (HIV-2 strain (ROD)): 141 µM
CC50 (in vitro): 235 µM

Nc1nc(N[C@H]2CCN(C(=O)COc3ccc(Cl)cc3)C2)c2nc(CCc3ccc(F)cc3)sc2n1 [Example 147, 5-amino-2-[2-(4-fluorophenyl)ethyl]-7-(1-(4-chlorophenoxyacetyl)pyrrolidin-3-(S)-ylamino)-thiazolo[5,4-d]pyrimidine]
HCV-1a Replicon Selectivity Index [1]: 0.5
EC50 [1]: 31 µM
CC50 at 72 h [2]: 15.5 µM

Nc1nc(N2CC[C@@H](NC(=O)COc3ccc(Cl)cc3)C2)c2nc(CCc3ccc(F)cc3)sc2n1 [Example 143, 5-amino-2-[2-(4-fluorophenyl)ethyl]-7-(3-(R)-[2-(4-chlorophenoxy)-acetylamino]pyrrolidin-1-yl)-thiazolo[5,4-d]pyrimidine]
HCV-1a Replicon Selectivity Index [1]: 0.7
EC50 [1]: > 44.4 µM
CC50 at 72 h [2]: 30.4 µM

COc1ccc(OCC(=O)N2CCN(c3nc(N)nc4sc(CCc5ccc(F)cc5)nc34)CC2)cc1 [Example 50, 1-(4-(5-amino-2-(4-fluorophenethyl)thiazolo[5,4-d]pyrimidin-7-yl)piperazin-1-yl)-2-(4-methoxyphenoxy)ethanone]
EC50 (HIV-1 strain IIIB): 3.5 µM
EC50 (HIV-2 strain (ROD)): > 212 µM
CC50 (in vitro): 212 µM

Nc1nc(N2CCN(C(=O)COc3ccc(Cl)cc3)CC2)c2nc(C3(c4ccc(Cl)cc4)CC3)sc2n1 [Example 117, 5-amino-7-[4-(4-chlorophenoxyacetyl)piperazin-1-yl]-2-(1-(4-chlorophenyl)cyclopropyl)thiazolo[5,4-d]pyrimidine]
HCV-1a Replicon Selectivity Index [1]: 1.3
EC50 [1]: 17.7 µM
CC50 at 72 h [2]: 23.3 µM

CC(c1ccc(Cl)cc1)c1nc2c(N3CCN(C(=O)COc4ccc(Cl)cc4)CC3)nc(N)nc2s1 (stereo not drawn) [Example 125, 5-amino-7-[4-(4-chlorophenoxyacetyl)piperazin-1-yl]-2-(1-(4-chlorophenyl)ethyl)thiazolo[5,4-d]pyrimidine]
HCV-1a Replicon Selectivity Index [1]: 1.1
EC50 [1]: 22.6 µM
CC50 at 72 h [2]: 24.4 µM

Cc1cccc(NC(=O)N2CCN(c3nc(N)nc4sc(CCc5ccc(F)cc5)nc34)CC2)c1 [Example 133, 5-amino-2-[2-(4-fluorophenyl)ethyl]-7-(4-m-tolylcarbamoylpiperazin-1-yl)-thiazolo[5,4-d]pyrimidine]
HCV-1a Replicon Selectivity Index [1]: 1.5
EC50 [1]: 10.7 µM
CC50 at 72 h [2]: 15.8 µM

Nc1nc(N2CCN(C(=O)COc3ccc(Cl)cc3)CC2)c2nc(-c3ccc(F)cc3)oc2n1 [Example 169, 1-(4-(5-amino-2-(4-fluorophenyl)oxazolo[5,4-d]pyrimidin-7-yl)piperazin-1-yl)-2-(4-chlorophenoxy)ethanone]
EC50 (HIV-1 strain IIIB): > 50 µM
EC50 (HIV-2 strain (ROD)): > 50 µM
CC50 (in vitro): > 50 µM

CCOc1nc(N)nc2sc(-c3ccc(F)cc3)nc12 [Example 30, 7-ethoxy-2-(4-fluorophenyl)thiazolo[5,4-d]pyrimidin-5-amine]
EC50 (HIV-1 strain IIIB): > 373 µM
EC50 (HIV-2 strain (ROD)): > 373 µM
CC50 (in vitro): > 373 µM

Cc1cccc(NC(=O)N2CCN(c3nc(N)nc4sc(-c5ccc(F)cc5)nc34)CC2)c1 [Example 43, 4-(5-amino-2-(4-fluorophenyl)thiazolo[5,4-d]pyrimidin-7-yl)-N-m-tolylpiperazine-1-carboxamide]
EC50 (HIV-1 strain IIIB): 0.4 µM
EC50 (HIV-2 strain (ROD)): 0.39 µM
CC50 (in vitro): 15.8 µM

Nc1nc(N2CCOCC2)c2cc(-c3ccc(F)cc3)sc2n1 [Example 364, 6-(4-fluorophenyl)-4-morpholinothieno[2,3-d]pyrimidin-2-amine]
EC50 (HIV-1 strain IIIB): > 239 µM
EC50 (HIV-2 strain (ROD)): > 239 µM
CC50 (in vitro): 239 µM

Nc1nc(N2CCN(S(=O)(=O)c3ccccc3)CC2)c2nc(-c3ccc(F)cc3)sc2n1 [Example 41, 2-(4-fluorophenyl)-7-(4-(phenylsulfonyl)piperazin-1-yl)thiazolo[5,4-d]pyrimidin-5-amine]
EC50 (HIV-1 strain IIIB): > 237 µM
EC50 (HIV-2 strain (ROD)): > 237 µM
CC50 (in vitro): 237 µM

CCCCCN1CCN(c2nc(N)nc3sc(-c4ccc(F)cc4)nc23)CC1 [Example 37, 2-(4-fluorophenyl)-7-(4-pentylpiperazin-1-yl)thiazolo[5,4-d]pyrimidin-5-amine]
EC50 (HIV-1 strain IIIB): > 312 µM
EC50 (HIV-2 strain (ROD)): 212 µM
CC50 (in vitro): > 312 µM

CCOc1nc(N)nc2sc(Cc3ccc(F)cc3)nc12 [Example 31, 7-ethoxy-2-(4-fluorobenzyl)thiazolo[5,4-d]pyrimidin-5-amine]
EC50 (HIV-1 strain IIIB): > 411 µM
EC50 (HIV-2 strain (ROD)): > 411 µM
CC50 (in vitro): > 411 µM

Nc1nc(N2CCN(CC(=O)N3CCOCC3)CC2)c2nc(-c3ccc(F)cc3)sc2n1 [Example 38, 2-(4-(5-amino-2-(4-fluorophenyl)thiazolo[5,4-d]pyrimidin-7-yl)piperazin-1-yl)-1-morpholinoethanone]
EC50 (HIV-1 strain IIIB): > 251 µM
EC50 (HIV-2 strain (ROD)): > 201 µM
CC50 (in vitro): 201 µM

CSc1nc(N)nc2sc(-c3ccc(F)cc3)nc12 [Example 16, 2-(4-fluorophenyl)-7-(methylthio)thiazolo[5,4-d]pyrimidin-5-amine]
EC50 (HIV-1 strain IIIB): > 233 µM
EC50 (HIV-2 strain (ROD)): > 82.1 µM
CC50 (in vitro): 82.1 µM

Cc1cccc(NC(=O)N2CCN(c3nc(N)nc4sc(Cc5ccc(F)cc5)nc34)CC2)c1 [Example 44, 4-(5-amino-2-(4-fluorobenzyl)thiazolo[5,4-d]pyrimidin-7-yl)-N-m-tolylpiperazine-1-carboxamide]
EC50 (HIV-1 strain IIIB): 4.02 µM
EC50 (HIV-2 strain (ROD)): 0.85 µM
CC50 (in vitro): 10.1 µM

Cc1ccc(NC(=O)N2CCN(c3nc(N)nc4sc(-c5ccc(F)cc5)nc34)CC2)cc1 [Example 42, 4-(5-amino-2-(4-fluorophenyl)-thiazolo[5,4-d]pyrimidin-7-yl)-N-p-tolylpiperazine-1-carboxamide]
EC50 (HIV-1 strain IIIB): 1.35 µM
EC50 (HIV-2 strain (ROD)): 0.98 µM
CC50 (in vitro): 28.2 µM

Nc1nc(N2CCN(Cc3ccccc3)CC2)c2nc(-c3ccc(F)cc3)sc2n1 [Example 39, 7-(4-benzylpiperazin-1-yl)-2-(4-fluorophenyl)thiazolo[5,4-d]pyrimidin-5-amine]
EC50 (HIV-1 strain IIIB): > 45.2 µM
EC50 (HIV-2 strain (ROD)): > 45.2 µM
CC50 (in vitro): 45.2 µM

Nc1nc(N2CCN(c3nccs3)CC2)c2nc(-c3ccc(F)cc3)sc2n1 [Example 36, 2-(4-fluorophenyl)-7-(4-(thiazol-2-yl)piperazin-1-yl)thiazolo[5,4-d]pyrimidin-5-amine]
EC50 (HIV-1 strain IIIB): > 29 µM
EC50 (HIV-2 strain (ROD)): > 36.4 µM
CC50 (in vitro): 36.4 µM

COCCOc1nc(N)nc2sc(-c3ccc(F)cc3)nc12 [Example 29, 2-(4-fluorophenyl)-7-(2-methoxyethoxy)-thiazolo[5,4-d]pyrimidin-5-amine]
EC50 (HIV-1 strain IIIB): > 390 µM
EC50 (HIV-2 strain (ROD)): 220 µM
CC50 (in vitro): > 390 µM

Cc1cccc(NC(=O)N2CCN(c3nc(N)nc4sc(C(C)c5ccc(F)cc5)nc34)CC2)c1 (stereo not drawn) [Example 68, 4-(5-amino-2-(1-(4-fluorophenyl)ethyl)thiazolo[5,4-d]pyrimidin-7-yl)-N-m-tolylpiperazine-1-carboxamide]
EC50 (HIV-1 strain IIIB): > 30.3 µM
EC50 (HIV-2 strain (ROD)): > 30.3 µM
CC50 (in vitro): 30.3 µM

Nc1nc(N2CCOCC2)c2nc(Cc3ccc(F)cc3)sc2n1 [Example 34, 2-(4-fluorobenzyl)-7-morpholino-thiazolo[5,4-d]pyrimidin-5-amine]
EC50 (HIV-1 strain IIIB): > 362 µM
EC50 (HIV-2 strain (ROD)): > 362 µM
CC50 (in vitro): > 362 µM

Nc1nc(SCc2ccccc2)c2nc(-c3ccc(F)cc3)sc2n1 [Example 28, 7-(benzylthio)-2-(4-fluorophenyl)thiazolo[5,4-d]pyrimidin-5-amine]
EC50 (HIV-1 strain IIIB): > 339 µM
EC50 (HIV-2 strain (ROD)): > 339 µM
CC50 (in vitro): > 339 µM
